Ends that are not written are not given here. Peptide text beside a SMILES is read from it. * marks the point of attachment. FITC = O=C1OC2(c3ccc(O)cc3Oc3cc(O)ccc32)c2ccc(NC(=S)*)cc21
Legend:
AP2M1 [1] = target: T1, AP2M1 (Homo sapiens, UniProt Q96CW1); experiment: FP saturation (direct) binding of FITC-labeled probe peptide, AP2M1
T1 construct: His-GST (cleaved yes); made in house; host or cells: E. coli BL21-Gold(DE3)
T1 sequence (Q96CW1 160-435 limits assumed): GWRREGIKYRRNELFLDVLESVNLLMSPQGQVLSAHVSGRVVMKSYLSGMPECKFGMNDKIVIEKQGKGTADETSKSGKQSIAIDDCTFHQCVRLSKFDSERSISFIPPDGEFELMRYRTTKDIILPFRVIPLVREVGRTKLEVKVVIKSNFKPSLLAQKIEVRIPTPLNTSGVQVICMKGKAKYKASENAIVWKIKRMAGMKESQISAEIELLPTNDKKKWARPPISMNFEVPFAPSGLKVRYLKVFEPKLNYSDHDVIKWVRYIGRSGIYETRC
Description: (§1) Proteins used for FP affinity measurements were expressed and purified in larger-scale bacterical cultures (at least 8 × 500 mL 2YT). His-GST-tagged G3BP1 and G3BP2 were used directly for affinity measurements after dialysis.
(§2) FP experiments were carried out using a SpectraMax iD5 multimode microplate reader (Molecular Devices) using a black half area 96-well plate (Corning, USA #3993) with a total volume of 50 μL. The settings used were 485 nm for excitation and 535 nm for emission.
(§3) Peptides were from GeneCust (France) with a purity of over 95%. FITC-labeled peptides were dissolved in dimethyl sulfoxide (DMSO). Unlabelled peptides were dissolved in phosphate buffer (50 mM phosphate buffer pH 7.5 and 1–2 mM reducing agent DTT or TCEP). All measurements were performed at least in triplicates. For saturation binding experiment, proteins were serially diluted in the plate with phosphate buffer in a volume 25 μL, and then supplemented with a master mix of 10 nM FITC-labeled peptide in phosphate buffer. […] Twenty-five mitroliter of this displacement master mix was added to unlabeled peptides, which were serially diluted in the plate in 25 μL phosphate buffer.
(§4) The data were analysed with GraphPad Prism version 9.0.0 for MacOS (GraphPad Software, San Diego, California USA, www.graphpad.com). […]

[2] = target: FERM domain of Ezrin (EZR) (Homo sapiens, UniProt P15311); experiment: biochemical; type: binding
Sequence of FERM domain of Ezrin (EZR) (P15311 2-296 limits assumed): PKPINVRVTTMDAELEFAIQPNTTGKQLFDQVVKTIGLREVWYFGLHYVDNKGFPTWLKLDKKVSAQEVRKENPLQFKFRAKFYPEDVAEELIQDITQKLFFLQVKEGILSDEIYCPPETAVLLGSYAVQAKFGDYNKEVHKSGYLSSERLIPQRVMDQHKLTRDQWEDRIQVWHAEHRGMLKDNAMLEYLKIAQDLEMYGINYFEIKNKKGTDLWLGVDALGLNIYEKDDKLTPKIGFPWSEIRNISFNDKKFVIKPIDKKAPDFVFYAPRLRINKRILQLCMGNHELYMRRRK

AP2M1 [3] = target: T1, AP2M1; experiment: biochemical; type: binding
MAP1LC3C [4] = target: T2, MAP1LC3C (Homo sapiens, UniProt Q9BXW4); experiment: biochemical; type: binding
T2 construct: His-GST (cleaved yes); made in house; host or cells: E. coli BL21-Gold(DE3)
T2 sequence (Q9BXW4 1-126 limits assumed): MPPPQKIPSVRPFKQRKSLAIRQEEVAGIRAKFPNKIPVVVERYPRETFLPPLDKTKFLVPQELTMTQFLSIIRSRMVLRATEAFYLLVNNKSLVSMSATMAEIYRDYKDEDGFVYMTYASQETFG

USP7 [5] = target: T3, USP7 (Homo sapiens, UniProt Q93009); experiment: biochemical; type: binding
T3 construct: His-GST (cleaved yes); made in house; host or cells: E. coli BL21-Gold(DE3)
T3 sequence (Q93009 63-205 limits assumed): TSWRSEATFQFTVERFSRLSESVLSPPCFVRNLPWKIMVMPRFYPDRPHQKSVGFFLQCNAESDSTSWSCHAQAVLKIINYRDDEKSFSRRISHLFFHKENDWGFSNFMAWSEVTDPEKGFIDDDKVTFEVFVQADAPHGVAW

MAP1LC3C [6] = target: T2, MAP1LC3C; experiment: FP saturation (direct) binding of FITC-labeled probe peptide, MAP1LC3C
Description: as §1, §2, §3, §4

USP7 [7] = target: T3, USP7; experiment: FP saturation (direct) binding of FITC-labeled probe peptide, USP7; settings: Kd direct binding of 10 nM FITC probe, saturation with protein
Description: as §1, §2, §3, §4

## CC(C)C[C@H](NC(=O)[C@H](CCCNC(=N)N)NC(=O)[C@H](CCC(N)=O)NC(=O)[C@H](Cc1ccc(O)cc1)NC(=O)[C@H](CCC(=O)O)NC(=O)[C@@H](NC(=O)[C@H](CC(=O)O)NC(=O)[C@H](Cc1ccccc1)NC(=S)Nc1ccc2c(c1)C(=O)OC21c2ccc(O)cc2Oc2cc(O)ccc21)[C@@H](C)O)C(=O)N[C@@H](CCC(=O)O)C(=O)N[C@@H](C)C(=O)N[C@@H](CO)C(=O)O [ATG9A 4-14 Human] (HELM PEPTIDE1{[O=C1OC2(c3ccc(O)cc3Oc3cc(O)ccc32)c2ccc(NC(=S)[*:2])cc21].F.D.T.E.Y.Q.R.L.E.A.S}$$$$V2.0)
AP2M1 [1]
  Kd: 1.1 ± 0.03 µM

## CC[C@H](C)[C@H](NC(=O)[C@H](CC(C)C)NC(=O)[C@@H](NC(=O)CNC(=O)[C@@H](NC(=O)[C@H](CCC(=O)O)NC(=O)[C@H](CCC(=O)O)NC(=O)[C@H](CO)NC(=O)[C@@H](NC(=O)[C@H](Cc1ccccc1)NC(=O)[C@H](CO)NC(=O)[C@H](Cc1ccc(O)cc1)NC(=O)[C@@H](N)CCSC)C(C)C)[C@@H](C)O)[C@@H](C)O)C(=O)N[C@H](C(=O)N[C@@H](CC(N)=O)C(=O)N[C@@H](CO)C(=O)O)C(C)C [E 1-16 Sars-CoV2/Sars-CoV] (H-MYSFVSEETGTLIVNS-OH)
[2]
  Kd: 57.9 ± 0.4 µM

## CC[C@H](C)[C@H](NC(=O)[C@H](Cc1c[nH]cn1)NC(=O)[C@H](CCCCN)NC(=O)[C@H](CC(N)=O)NC(=O)[C@H](CC(C)C)NC(C)=O)C(=O)N[C@@H](CC(=O)O)C(=O)N[C@@H](C)C(=O)N[C@@H](Cc1ccc(O)cc1)C(=O)N[C@@H](CCCCN)C(=O)N[C@H](C(=O)N[C@@H](Cc1ccccc1)C(=O)N1CCC[C@H]1C(=O)N1CCC[C@H]1C(=O)N[C@H](C(=O)N[C@@H](CCC(=O)O)C(N)=O)[C@@H](C)O)[C@@H](C)O [N 353-367 Sars-CoV2/Sars-CoV]
AP2M1 [3]
  IC50: 1530 µM
  Ki: 530 µM

## CC(C)C[C@H](NC(=O)[C@@H](NC(=O)[C@H](CC(=O)O)NC(=O)[C@H](Cc1ccccc1)NC(=O)[C@H](CO)NC(=O)[C@H](CC(N)=O)NC(=O)[C@H](CO)NC(=O)[C@@H](NC(=O)[C@H](CCC(=O)O)NC(=O)[C@@H](N)C(C)C)[C@@H](C)O)C(C)C)C(=O)N[C@@H](CCCCN)C(=O)N[C@@H](CO)C(=O)N[C@@H](CCC(=O)O)C(=O)N[C@@H](CC(=O)O)C(=O)N[C@@H](C)C(=O)N[C@@H](CCC(N)=O)C(=O)N[C@@H](Cc1ccc(O)cc1)C(=O)O [NSP3 2019-2034 Sars-CoV2]
MAP1LC3C [4]
  IC50: 1530 µM
  Kd: 210 ± 18 µM
  Ki: 210 µM
USP7 [5]
  IC50: 270 µM
  Kd: 37 ± 0.2 µM
  Ki: 37 µM
[2]
  Kd: 19.8 ± 0.4 µM

## CC[C@H](C)[C@H](NC(=O)[C@H](CCSC)NC(=O)[C@H](CO)NC(C)=O)C(=O)N[C@@H](CCC(=O)O)C(=O)N[C@@H](CC(=O)O)C(=O)N[C@H](C(=O)N[C@@H](CC(=O)O)C(=O)N[C@@H](Cc1ccc(O)cc1)C(=O)N[C@H](C(=O)N1CCC[C@H]1C(=O)N[C@@H](CC(C)C)C(=O)N[C@@H](CCCCN)C(=O)N[C@@H](CO)C(=O)N[C@@H](C)C(=O)N[C@H](C(N)=O)C(C)C)C(C)C)[C@@H](C)CC [NSP14 6498-6512 Mers]
AP2M1 [3]
  Kd: 3 ± 0.1 µM
  Ki: 3 µM

## CC(C)C[C@H](NC(=O)[C@H](Cc1c[nH]cn1)NC(=O)[C@@H](NC(=O)[C@H](Cc1c[nH]c2ccccc12)NC(=O)[C@H](CC(=O)O)NC(=O)[C@H](CC(=O)O)NC(=O)[C@H](CC(=O)O)NC(=S)Nc1ccc2c(c1)C(=O)OC21c2ccc(O)cc2Oc2cc(O)ccc21)[C@@H](C)O)C(=O)N[C@@H](CO)C(=O)N[C@@H](CO)C(=O)N[C@@H](CCCCN)C(N)=O [SQSTM1 335-344 Human]
MAP1LC3C [6]
  Kd: 1.1 ± 0.03 µM

## {FITC}-DYSQPSTSSSIIY [MDM2 393-414 Human]
USP7 [7]
  Ki displacement/Kd direct binding: 0.49 µM

— paper PMC8605023 (Nature Communications, 2021)
